Test results taken from patent publication US12171768B2, “IRAK4 degraders and uses thereof” (priority 2021, dated 2024).
Entries after “also recorded” stand apart in the source; their conditions may differ. Like-named read-outs stand apart in the source and are kept apart here.

Assays:
[1] = target: CYP3A4 (Homo sapiens, UniProt P08684); assay: In vitro drug-drug interaction study, CYP3A4; assay type: in vitro ADME
[2] = Excretion study in bile duct-cannulated (BDC) rats; assay type: in vivo
[3] = Phase 1 MAD safety and tolerability; assay type: in vivo, human; conditions: multiple daily doses over 14 days up to 200 mg (MAD 4)
From the text: Part B: Part B is a double-blind, randomized, placebo-controlled, MAD, sequential group study in 48 adult HVs, divided in 4 cohorts of 12 adult HVs in each cohort. One or more additional cohorts may be added, as needed.
All data will be fully listed.

[4] = target: CYP2C19 (Homo sapiens, UniProt P33261); assay: In vitro drug-drug interaction study, CYP2C19; assay type: in vitro ADME
Sequence of CYP2C19 (P33261 whole entry): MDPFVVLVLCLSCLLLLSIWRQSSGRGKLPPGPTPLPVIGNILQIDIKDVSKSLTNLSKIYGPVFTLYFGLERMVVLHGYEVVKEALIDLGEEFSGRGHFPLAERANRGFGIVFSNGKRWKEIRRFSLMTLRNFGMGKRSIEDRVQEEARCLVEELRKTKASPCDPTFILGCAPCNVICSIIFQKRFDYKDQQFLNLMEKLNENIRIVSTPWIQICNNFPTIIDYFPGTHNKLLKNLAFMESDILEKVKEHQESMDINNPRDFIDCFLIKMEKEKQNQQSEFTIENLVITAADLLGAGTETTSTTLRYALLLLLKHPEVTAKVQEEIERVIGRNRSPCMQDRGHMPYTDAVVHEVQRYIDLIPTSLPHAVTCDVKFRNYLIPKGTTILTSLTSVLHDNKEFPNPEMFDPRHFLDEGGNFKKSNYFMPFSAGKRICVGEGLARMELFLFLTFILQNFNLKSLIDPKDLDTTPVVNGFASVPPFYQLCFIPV

[5] = system: MSU-crystal induced inflammation; assay: Mouse air pouch model of MSU-crystal induced (TLR 2/4-dependent) inflammation; assay type: in vivo; conditions: 3 days twice daily, 30 to 100 mg/kg
[6] = system: R848- or LPS-mediated induction of pro-inflammatory cytokines in whole blood; assay: Phase 1 SAD ex vivo proinflammatory cytokine induction by R848 and LPS in whole blood; parameters: species or system human; conditions: for Mean maximum percent change from baseline, IFNγ / Mean maximum percent change from baseline, IL1β / Mean maximum percent change from baseline, IL6 / Mean maximum percent change from baseline, IL8 / Mean maximum percent change from baseline, IL10 / Mean maximum percent change from baseline, IL12 / Mean maximum percent change from baseline, IL17 / Mean maximum percent change from baseline, TNFα: Cohort 7
[7] = Phase 1 MAD Compound A concentration in skin; assay type: in vivo; conditions: human, oral, Day 14, once daily dosing, read-out: Ctrough (pre-dose) levels in skin relative to plasma
[8] = system: cytochrome P450 (CYP); assay: In vitro and in vivo metabolism studies; assay type: in vitro ADME
[9] = In vivo pharmacokinetic studies in rats, dogs and monkeys
[10] = Red blood cell partitioning; assay type: in vitro ADME
[11] = Distribution studies in rats; assay type: in vivo
[12] = system: TLR agonist (lipopolysaccharide and R848) and IL-1β-induced proinflammatory cytokine production; assay: In vitro cytokine release assays in PBMCs; assay type: cell-based; conditions: LPS
[13] = Phase 1 MAD plasma pharmacokinetics; assay type: in vivo, human; conditions: for Cmax at 14 days / concentration at 24 h / Tmax at 14 days: human, plasma, oral, steady-state (Day 14); for Cmax at 14 days / concentration at 24 h: geometric mean (% CV); for concentration at 24 h: read-out: Ctrough; for Tmax at 14 days: median (range)
From the text: The selection of Compound A doses will be guided by the safety, tolerability, and PK data in humans from the SAD portion of the study. […] Increasing dose levels in subsequent MAD cohorts will be identified based on the safety and PK observed in the previous SAD and MAD cohorts. Dose escalation between each MAD cohort will not exceed 100%.
However, the dosing interval and the duration of dosing may change following review of the safety, PK, and PD data from Part A. […]

[14] = Solubility; assay type: physicochemical
[15] = Permeability; assay type: in vitro ADME
[16] = system: imiquimod psoriasis model; assay: Imiquimod psoriasis model (TLR 7/8-dependent); assay type: in vivo, murine
[17] = target: T1, IRAK4 (Canis lupus familiaris, UniProt A0A8I3S726); assay: In vitro IRAK4 degradation in dog PBMCs; assay type: cell-based; conditions: read-out: DC50, IRAK4 degradation
T1 construct: endogenous in cells; host or cells: dog PBMCs (A3); PBMCs and skin of dosed dogs (A12)
T1 sequence (A0A8I3S726 1-460): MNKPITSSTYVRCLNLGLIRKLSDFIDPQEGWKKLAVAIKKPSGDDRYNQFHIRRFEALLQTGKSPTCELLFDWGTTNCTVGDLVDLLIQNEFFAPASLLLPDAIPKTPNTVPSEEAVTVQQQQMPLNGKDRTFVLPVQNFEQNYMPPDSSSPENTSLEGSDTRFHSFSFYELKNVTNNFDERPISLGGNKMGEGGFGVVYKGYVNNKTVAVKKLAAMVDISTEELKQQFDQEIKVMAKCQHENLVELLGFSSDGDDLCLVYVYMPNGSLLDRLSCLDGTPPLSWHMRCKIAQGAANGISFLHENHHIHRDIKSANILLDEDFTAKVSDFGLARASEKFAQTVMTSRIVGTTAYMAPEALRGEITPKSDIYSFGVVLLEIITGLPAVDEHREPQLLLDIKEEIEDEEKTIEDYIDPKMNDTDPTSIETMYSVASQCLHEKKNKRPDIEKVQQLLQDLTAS

[18] = system: IRAK4; assay: In vitro IRAK4 degradation in monkey PBMCs; assay type: cell-based
[19] = target: P-glycoprotein (P-gp) (Homo sapiens, UniProt P08183); assay: P-gp substrate identification in vitro; assay type: in vitro ADME
Sequence of P-glycoprotein (P-gp) (P08183 whole entry): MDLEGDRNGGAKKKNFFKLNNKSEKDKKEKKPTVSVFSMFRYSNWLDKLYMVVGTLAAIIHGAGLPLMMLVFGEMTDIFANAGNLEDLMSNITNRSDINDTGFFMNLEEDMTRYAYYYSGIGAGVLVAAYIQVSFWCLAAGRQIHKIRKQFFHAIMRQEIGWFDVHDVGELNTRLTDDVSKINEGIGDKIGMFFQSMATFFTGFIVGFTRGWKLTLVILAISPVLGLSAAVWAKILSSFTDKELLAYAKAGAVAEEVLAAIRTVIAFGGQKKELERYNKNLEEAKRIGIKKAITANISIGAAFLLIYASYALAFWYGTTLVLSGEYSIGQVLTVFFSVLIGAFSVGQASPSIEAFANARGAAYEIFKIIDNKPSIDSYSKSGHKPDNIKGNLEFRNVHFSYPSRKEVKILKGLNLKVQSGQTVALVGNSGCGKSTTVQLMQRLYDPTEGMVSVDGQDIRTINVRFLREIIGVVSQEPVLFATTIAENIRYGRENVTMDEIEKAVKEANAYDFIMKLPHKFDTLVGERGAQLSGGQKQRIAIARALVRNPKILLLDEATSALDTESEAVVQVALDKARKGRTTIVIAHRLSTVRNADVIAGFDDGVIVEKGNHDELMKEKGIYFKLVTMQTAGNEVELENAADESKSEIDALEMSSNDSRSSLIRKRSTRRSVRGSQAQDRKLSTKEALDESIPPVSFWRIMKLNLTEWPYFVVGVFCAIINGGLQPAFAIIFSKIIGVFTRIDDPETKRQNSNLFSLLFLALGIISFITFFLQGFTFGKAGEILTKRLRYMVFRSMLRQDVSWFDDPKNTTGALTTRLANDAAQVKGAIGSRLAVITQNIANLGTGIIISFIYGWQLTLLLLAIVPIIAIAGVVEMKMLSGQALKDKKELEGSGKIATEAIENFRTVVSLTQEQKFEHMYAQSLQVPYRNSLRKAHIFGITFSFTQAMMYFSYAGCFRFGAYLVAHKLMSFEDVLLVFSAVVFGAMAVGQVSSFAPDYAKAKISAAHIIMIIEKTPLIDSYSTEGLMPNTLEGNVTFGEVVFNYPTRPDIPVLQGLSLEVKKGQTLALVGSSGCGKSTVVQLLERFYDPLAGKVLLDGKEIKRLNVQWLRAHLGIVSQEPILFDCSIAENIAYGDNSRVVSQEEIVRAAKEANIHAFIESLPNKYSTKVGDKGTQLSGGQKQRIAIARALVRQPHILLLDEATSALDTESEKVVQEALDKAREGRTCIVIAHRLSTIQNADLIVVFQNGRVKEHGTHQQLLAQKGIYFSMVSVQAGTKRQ

[20] = target: T2, IRAK4 (Rattus norvegicus, UniProt A0A8I6G1H3); assay: In vitro IRAK4 degradation in rat splenocytes; assay type: cell-based; conditions: read-out: DC50, IRAK4 degradation
T2 construct: endogenous in cells; host or cells: rat splenocytes
T2 sequence (A0A8I6G1H3 1-461): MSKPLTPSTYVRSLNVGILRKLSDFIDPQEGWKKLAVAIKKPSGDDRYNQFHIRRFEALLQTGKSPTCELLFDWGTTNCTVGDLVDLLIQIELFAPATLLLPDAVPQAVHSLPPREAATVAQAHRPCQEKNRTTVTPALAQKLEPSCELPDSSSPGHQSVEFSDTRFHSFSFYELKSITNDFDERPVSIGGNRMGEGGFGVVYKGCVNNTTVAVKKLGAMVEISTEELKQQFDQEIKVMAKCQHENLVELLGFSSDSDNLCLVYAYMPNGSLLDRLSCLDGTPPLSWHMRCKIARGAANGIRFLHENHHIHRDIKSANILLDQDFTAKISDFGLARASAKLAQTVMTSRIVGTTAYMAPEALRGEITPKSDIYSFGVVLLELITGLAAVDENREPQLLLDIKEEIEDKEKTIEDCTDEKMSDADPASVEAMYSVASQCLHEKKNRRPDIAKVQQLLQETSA

Sequence of CYP3A4 (P08684 whole entry): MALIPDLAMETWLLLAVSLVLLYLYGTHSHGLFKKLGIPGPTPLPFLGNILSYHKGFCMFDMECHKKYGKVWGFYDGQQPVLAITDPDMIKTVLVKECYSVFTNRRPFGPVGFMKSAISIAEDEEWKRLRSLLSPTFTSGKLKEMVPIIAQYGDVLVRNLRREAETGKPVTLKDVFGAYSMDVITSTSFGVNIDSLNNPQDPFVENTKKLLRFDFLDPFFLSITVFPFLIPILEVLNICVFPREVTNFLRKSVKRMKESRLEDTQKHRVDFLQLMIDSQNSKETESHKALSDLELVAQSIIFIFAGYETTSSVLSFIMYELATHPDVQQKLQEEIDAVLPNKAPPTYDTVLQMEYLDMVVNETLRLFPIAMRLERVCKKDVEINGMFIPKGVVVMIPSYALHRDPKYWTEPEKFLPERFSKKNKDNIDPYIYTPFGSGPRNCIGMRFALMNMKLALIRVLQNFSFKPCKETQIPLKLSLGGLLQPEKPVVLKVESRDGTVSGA

Q: With `Cn1c(=O)n([C@@H]2CCC(=O)NC2=O)c2cccc(C#CCOC3CCN(C[C@H]4CC[C@H](n5cc(NC(=O)c6cnn7ccc(N8C[C@H]9C[C@@H]8CO9)nc67)c(C(F)F)n5)CC4)CC3)c21` [Compound A, 5-((1R,4R)-2-oxa-5-azabicyclo[2.2.1]heptan-5-yl)-N-(3-(difluoromethyl)-1-((1r,4R)-4-((4-((3-(1-(2,6-dioxopiperidin-3-yl)-3-methyl-2-oxo-2,3-dihydro-1H-benzo[d]imidazol-4-yl)prop-2-yn-1-yl)oxy)piperidin-1-yl)methyl)cyclohexyl)-1H-pyrazol-4-yl)pyrazolo[1,5-a]pyrimidine-3-carboxamide] as the molecule, how does the “Inhibition of CYP3A4” value [1] read?
A: The value was “potential time dependent inhibition”.

Q: What about the “Biliary and intestinal excretion as parent drug” value [2] of the same molecule?
A: Its value is “minor to moderate”.

Q: And the Renal clearance [2]?
A: Its Renal clearance is “negligible”.

Q: What about the Safety and tolerability [3] of the same molecule?
A: The Safety and tolerability was “safe and well-tolerated”.

Q: And the “Inhibition of CYP2C19” value [4]?
A: The value was “potential time dependent inhibition”.

Q: What about the “IRAK4 levels in the spleen” value [5] of the same molecule?
A: Its value is “significantly reduced”.

Q: And the “Inflammatory exudate, including neutrophils and IL-1β” value [5]?
A: The value was “significantly reduced”.

Q: And the “Mean maximum ex vivo cytokine inhibition” value ([6]; 24-48 h post-dose, LPS or R848, whole blood)?
A: Its value is “up to 97%”.

Q: And the “Mean maximum percent change from baseline, IFNγ” value ([6]; LPS, 24-48 hours)?
A: Its value is −42%^.

Q: And the “Mean maximum percent change from baseline, IL1β” value ([6]; LPS, 24-48 hours)?
A: Its value is −68%^1.

Q: What about the “Mean maximum percent change from baseline, IL6” value ([6]; LPS, 24-48 hours) of the same molecule?
A: The value was −62%^1.

Q: And the “Mean maximum percent change from baseline, IL8” value ([6]; LPS, 24-48 hours)?
A: Its value is −81%^1.

Q: And the “Mean maximum percent change from baseline, IL10” value ([6]; LPS, 24-48 hours)?
A: Its value is −83%^1.

Q: And the “Mean maximum percent change from baseline, IL12” value ([6]; LPS, 24-48 hours)?
A: Its value is −35%^2.

Q: What about the “Mean maximum percent change from baseline, IL17” value ([6]; LPS, 24-48 hours) of the same molecule?
A: Its value is −43%^2.

Q: And the “Mean maximum percent change from baseline, TNFα” value ([6]; LPS, 24-48 hours)?
A: The value was −42%^2.

Q: What about the “Mean maximum percent change from baseline, IFNγ” value ([6]; R848, 24-48 hours) of the same molecule?
A: Its value is −97%^2.

Q: And the “Mean maximum percent change from baseline, IL1β” value ([6]; R848, 24-48 hours)?
A: The value was −92%^1.

Q: What about the “Mean maximum percent change from baseline, IL6” value ([6]; R848, 24-48 hours) of the same molecule?
A: Its value is −88%^1.

Q: And the “Mean maximum percent change from baseline, IL8” value ([6]; R848, 24-48 hours)?
A: The value was −54%^.

Q: And the “Mean maximum percent change from baseline, IL10” value ([6]; R848, 24-48 hours)?
A: Its value is −89%^1.

Q: What about the “Mean maximum percent change from baseline, IL12” value ([6]; R848, 24-48 hours) of the same molecule?
A: Its value is −93%^1.

Q: What about the “Mean maximum percent change from baseline, IL17” value ([6]; R848, 24-48 hours) of the same molecule?
A: Its value is −79%^1.

Q: What about the “Mean maximum percent change from baseline, TNFα” value ([6]; R848, 24-48 hours) of the same molecule?
A: Its value is −88%^2.

Q: What about the Kp at 14 day [7] of the same molecule?
A: The Kp at 14 day was about 10.

Q: What about the Primary metabolizing enzyme [8] of the same molecule?
A: Its Primary metabolizing enzyme is “primarily metabolized by CYP3A4”.

Q: And the Metabolic pathway ([8]; in vitro and in vivo)?
A: The Metabolic pathway was “oxidative metabolism via cytochrome P450 (CYP)”.

Q: What about the Bioavailability [9] of the same molecule?
A: The Bioavailability was “low to moderate”.

Q: What about the Clearance [9] of the same molecule?
A: The Clearance was “moderate to high”.

Q: And the Terminal half-life [9]?
A: The Terminal half-life was “moderate”.

Q: And the “Volume of distribution at steady state” value [9]?
A: The value was “high”.

Q: What about the “Partitioning into red blood cells” value [10] of the same molecule?
A: Its value is “did not significantly partition into red blood cells”.

Q: What about the Tissue distribution [11] of the same molecule?
A: Its Tissue distribution is “extensively distributed into tissues”.

Q: And the “IC50, inhibition of proinflammatory cytokine production (IL-6, TNF-α, GM-CSF, IL-8)” value [12]?
A: Its value is “low nM range”.

Q: And the “Day of dosing by which steady-state was reached” value ([13]; MAD, once daily dosing)?
A: The value was at most 7 days.

Q: And the Cmax at 14 days ([13]; 25 mg QD)?
A: Its Cmax at 14 days is 8.2 ng/mL.

Q: What about the concentration at 24 h ([13]; 25 mg QD) of the same molecule?
A: The concentration at 24 h was 5.03 ng/mL.

Q: And the Tmax at 14 days ([13]; 25 mg QD)?
A: The Tmax at 14 days was 8 h.

Q: What about the Cmax at 14 days ([13]; 50 mg QD) of the same molecule?
A: The Cmax at 14 days was 12 ng/mL.

Q: And the concentration at 24 h ([13]; 50 mg QD)?
A: The concentration at 24 h was 7.28 ng/mL.

Q: What about the Tmax at 14 days ([13]; 50 mg QD) of the same molecule?
A: Its Tmax at 14 days is 8 h.

Q: What about the Cmax at 14 days ([13]; 100 mg QD) of the same molecule?
A: Its Cmax at 14 days is 16.1 ng/mL.

Q: And the concentration at 24 h ([13]; 100 mg QD)?
A: The concentration at 24 h was 9.81 ng/mL.

Q: And the Tmax at 14 days ([13]; 100 mg QD)?
A: Its Tmax at 14 days is 8 h.

Q: And the Cmax at 14 days ([13]; 200 mg QD)?
A: The Cmax at 14 days was 25.2 ng/mL.

Q: What about the concentration at 24 h ([13]; 200 mg QD) of the same molecule?
A: Its concentration at 24 h is 18.8 ng/mL.

Q: What about the Tmax at 14 days ([13]; 200 mg QD) of the same molecule?
A: Its Tmax at 14 days is 8 h.

Q: What about the “BCS classification (tentative)” value [14] of the same molecule?
A: The value was “BCS II”.

Q: And the solubility [14]?
A: Its solubility is “low”.

Q: And the solubility ([14]; FaSSIF, pH 6.5, fassif, read-out: Solubility in bio-relevant fluid FaSSIF)?
A: The solubility was under 12000 µg/mL.

Q: What about the solubility ([14]; aqueous media, aqueous buffer, across the physiological pH range, read-out: Aqueous solubility) of the same molecule?
A: The solubility was at most 3000 µg/mL.

Q: And the Permeability [15]?
A: The Permeability was “moderate; also recorded: medium”.

Q: What about the “Degradation of IRAK4 in the spleen and skin” value ([16]; mouse, in vivo) of the same molecule?
A: The value was “dose-dependent degradation”.

Q: And the Skin thickness ([16]; mouse, in vivo)?
A: Its Skin thickness is “reduction in skin thickness”.

Q: What about the “IL-1β in the skin” value ([16]; p<0.0001) of the same molecule?
A: The value was “significant reduction”.

Q: And the “IL-6 in the skin” value ([16]; p<0.05, 300 mg/kg only)?
A: The value was “significant reduction”.

Q: And the DC50 [17]?
A: Its DC50 is under 10 nM.

Q: What about the P-gp substrate [19] of the same molecule?
A: The P-gp substrate was “substrate”.

Q: And the DC50 [20]?
A: The DC50 was under 10 nM.
